Laboratory results from patent publication US20150343016A1, “CHEMICAL ENTITIES AND THERAPEUTIC USES THEREOF” (The Regents of the University of Colorado, a body corporate, priority 2010, published 2015).

What was measured:
[1] = system: Drosophila; assay: Sensitizing flies to ionizing radiation (FIG. 7); type: in vivo
From the text: Bouvardin derivatives are depicted in FIG. 4 as a generic Formula III, with the specific derivative used in this example having R1=COOCH3, R2=OCH3, R3=H, R4=Boc, R5=CH3.
(§1) Feeding stage 3rd instar larvae were irradiated as previously described (2). Briefly, 120 hr old larvae were rinsed to remove food and passed through sizing sieves to obtain animals of uniform size. Larvae were placed in a Petri dish and irradiated using a TORREX X-ray generator, set at 115 kV and 5 mA (producing 2.4 Rads/sec or 1.44 Gy/min) Irradiated larvae were then cultured on cornmeal-agar media (2) containing drug or DMSO carrier. In all experiments using human cells, cells in 96-well plates were irradiated with a RS2000 Biological Irradiator (Rad Source Technologies, Inc.) delivering 1 Gy/min.

[2] = system: wild type Drosophila larvae; assay: Drosophila larval survival to adulthood (eclosion), drug with and without IR, wild type; type: in vivo; settings: for effect on the killing effect of radiation (+IR versus +both): wild type
Method: (§2) To validate the identification of Bouvardin from the primary screen, the effect of this molecule on Drosophila larvae alone or in combination with radiation were assessed (FIG. 12). The screen was performed using irradiated mutant larvae. Hits from the screen were defined as those that reduced the survival of IRRADIATED larvae compared to the population of drugs being tested (approximately 80 molecules at a time) or compared to DMSO controls in the re-test. A hit could therefore act by enhancing the effect of radiation, or by simply killing larvae as a single agent, or both. To distinguish among these possibilities, hits from the screen were re-tested against larvae with and without irradiation.
(§3) In FIG. 12 survival after each treatment is expressed as the fraction of animals that emerged (“eclosed”) as viable adults. The averages have been normalized to the average fraction eclosed in no IR/drug control for the respective genotype. Error bars extend beyond fractional survival of 1.0 simply because of normalization. (A-C) Fraction eclosed for WT and grp and p53 mutants at 16 uM of Bouvardin, with and without IR. The data are averages of 3-8 biological replicates per sample. Dotted line on each graph denotes expected ‘fraction eclosed’ if drug and IR act additively. IR doses were 4000R for WT and grp and 3000R for p53 because of the higher radiation sensitivity of the latter. (D) Fraction eclosed for Minute mutants and yw controls after exposure to 0 (−IR) and 2000R (+IR) of X-rays. N ranged from 86-207 per genotype per treatment, in 3 biological replicates per sample. *=p<0.01; **=<0.001. 100R=1Gy. Error bar=1 standard deviation.
(§4) The activity of Bouvardin in Drosophila alone or in combination with ionizing radiation (IR) was assessed. Drug concentrations of 10-20 μM were used to approximate the conditions of the original screen. Third instar larvae were irradiated and cultured on medium containing drug. The survival of larvae was quantified 10 days later by measuring the rate of eclosion into adulthood. […] For example, IR alone reduces the eclosion of p53 mutants to 0.63±0.05 and 10 μM of drug reduces it to 0.82±0.15. The combination of Bouvardin and IR reduces eclosion to 0.49, nearly the exact number expected (0.63±0.05×0.82±0.15=0.51±0.10) if the two treatments produced an additive effect. The expected eclosion for additive effect of drug and radiation are denoted with a white dotted line in each graph.
(§5) Wild type flies were of the Sevelin stock. Mutants have been described before. p535A-1-4 results from targeted deletion of the gene, and is maintained and used as homogygotes. grpl (Chk1 mutants) results from a p-element insertion and is a genetic null. Homozygotes of the latter were identified by the lack of GFP marker on the balancer chromosome. Minute mutants were of the genotypes y[1]w[*]; P[w[+mC]=lacW]RpS131/CyO and P[lacW]RpL36G0471 w67c23/FM7a. Because Minute mutants were in yw or w background, y1w1 (Bloomington stock #1495) was used as ‘wild type’ control in these experiments.
as §1, with “In all experiments using human cells, cells in 96-well plates were irradiated with a RS2000 Biological Irradiator (Rad Source Technologies, Inc.) delivering 1 Gy/min.” left out

[3] = system: Det562 cells; assay: CellTiter-Glo Luminescent Cell Viability Assay, Bouvardin with Taxol, Det562; type: cell-based, human; settings: Det562
Method: “Combination Index” computation. Combination Indices were calculated using CalcuSyn software (Biosoft), which uses the method of Chou and Talalay. This method first computes drug-induced effect using the Hill Equation: where E is the measured effect; C is the drug concentration; Emax is the full range of drug effect, usually at or near 100%; IC50 is the drug concentration producing the median effect of 50%; and n is the curve shape parameter describing the steepness of the concentration-effect relationship. The Chou and Talalay method then linearizes the Hill Equation by logarithmic transformation as: where fu is the fraction of cells left unaffected after drug exposure, fa is the fraction of cells affected by the exposure, C is the drug concentration used, Cm is the concentration to achieve the median effect, and n is the curve shape parameter. Cm and n are equivalent to IC50 and n, respectively, in the Hill Equation. The values of n (obtained from the slope), nlog(Cm) (obtained from the absolute value of the intercept), and, therefore, Cm are obtained by plotting log(fu−1−1) versus log(C). […]
The growth inhibitory effects of Bouvardin with Taxol were evaluated using CellTiter-Glo® Luminescent Cell Viability Assay (Promega G7570). […] Luminescence of each well was measured using an automated plate reader.

[4] = system: H157 cells; assay: Clonogenic assay, Bouvardin with IR, H157; type: cell-based, human
Method: To assess the effect of Bouvardin, another measure of cell survival, namely, clonogenic assays, was employed. […] For example, IC50 for IR at 0 and 10 nM of Bouvardin, extrapolated from the graph in FIG. 17A, are approximately 1.5 Gy and 1.0 Gy (dark and light dotted lines respectively).
In FIG. 17 (A) Clonogenic assays were used to confirm the effects of Bouvardin in combination with radiation in H157 cells. Cells were plated in 6 well plates at 1,000 cells per well. 24 hours later, various doses of (1 nM, 5 nM and 10 nM) of Bouvardin were added with media alone as a control. 24 hours after the addition of Bouvardin, the cells were irradiated at 0, 2, 4 and 6 Gy. Colonies were allowed to form for 2 weeks and then counted. The results are shown as a percentage of control (no drug, no IR). Error bar=±1SEM. (B) The effect of Bouvardin (Bvd) and radiation on H157 xenografts in athymic mice. Bouvardin treatment began when tumors had reached approximately 200 mm3. […]
The survival of cells treated with Bouvardin and IR was measured by performing standard clonogenic assays. […] The colonies were then stained with crystal violet (1% in methanol), rinsed 3× with water, and colonies with greater than 50 cells were counted using a dissection microscope. Fraction survival was calculated as a percentage of the control (no drug, no IR).

[5] = system: p53 mutant Drosophila larvae; assay: Drosophila larval survival to adulthood (eclosion), drug with and without IR, p53 mutants; type: in vivo; settings: p53 mutants; for eclosion expected if the two treatments produced an additive effect: Bouvardin and IR
Method: as §2, §3, §4, §5, §1

## COc1ccc(C[C@H]2C(=O)N[C@H](C)C(=O)N(C)[C@@H]3C(=O)N(C)[C@@H](Cc4ccc(O)c(c4)Oc4ccc(cc4)[C@H]3O)C(=O)N[C@@H](C)C(=O)N[C@H](C)C(=O)N2C)cc1 (stereo in doubt) [Bouvardin, bouvardin]
[1]
  observed effect of drug with radiation versus additive effect: exceeds additive effect of drug and radiation
[2]
  effect on the killing effect of radiation (+IR versus +both): not wild type
[2]; wild type flies, bouvardin up to 100 μM, no IR
  effect of drug alone on survival to adulthood: very little effect
[2]; listed as bouvardin
  effect on the killing effect of radiation (+IR versus +both): did not significantly reduce survival to adulthood
[3]
  interaction of Bouvardin with Taxol: synergy with Taxol over a wide range of concentrations
[4]
  effect on radiation-induced reduction of clonogenicity: increased the effect of radiation in reducing the clonogenicity
[5]
  manner in which drug and radiation act together: additive manner
  eclosion expected if the two treatments produced an additive effect: 0.51±0.10
[5]; 10 μM of drug alone
  eclosion (fraction eclosed, normalized to no IR/drug control): 0.82±0.15
[5]; 10 mM of drug alone
  eclosion: 0.82
[5]; listed as bouvardin
  eclosion expected if the two treatments produced an additive effect: 0.50
[5]; combination of Bouvardin and IR
  eclosion (fraction eclosed, normalized to no IR/drug control): 0.49
[5]; drug 10-20 μM
  effect on the killing effect of radiation (+IR versus +both): increased the killing effect of radiation in a statistically significant manner
